Source: patent US20260001914A1, “MACROCYCLIC PEPTIDES TARGETING KRAS” (Merck Sharp & Dohme LLC, priority 2022, published 2026)
*1 amine or outer side, *2 acyl side, *3 side chain or, on linkers, in order; H or OH if unused. Where a SMILES comes first, the peptide text is derived from it. Bridges are numbered along the chain shown (N, C = ends). [ ]: non-standard residue; d: D form. The star is where a group is joined. NMeNva(5-imidazol-1-yl) = CN[C@@H](CCCn1ccnc1)C(=O)O; Phe(4-guanidino) = N=C(N)Nc1ccc(C[C@H](N)C(=O)O)cc1; X55 = O=C([C@H](Cc1coc(-c2ccccc2)n1)N[*:1])[*:2]; Ala(pyrimidin-5-yl) = N[C@@H](Cc1cncnc1)C(=O)O; X6 = O=C([C@H](Cc1cnn(C2COC2)c1)N[*:1])[*:2]; X81 = Cc1ccc(C[C@H](N[*:1])C(=O)[*:2])c(F)n1; NMePhe(3-Me) = CN[C@@H](Cc1cccc(C)c1)C(=O)O; X20 = CN([C@@H](Cc1cnco1)C(=O)[*:2])[*:1]; X24 = O=C([C@H](Cc1ccncc1Cl)N[*:1])[*:2]; NMeArg(Me) = CNC(=N)NCCC[C@H](NC)C(=O)O; X13 = O=C([C@H](Cc1ccncc1F)N[*:1])[*:2]; NMeAha = CN[C@@H](CCN=[N+]=[N-])C(=O)O; Phe(4-F) = N[C@@H](Cc1ccc(F)cc1)C(=O)O; NHCH2CH2SCH2CO = O=C(CSCCN[*:1])[*:2]; Phe(2-F) = N[C@@H](Cc1ccccc1F)C(=O)O; X31 = O=C([C@H](CCC1CC1)N[*:1])[*:2]; Gly(octyl) = CCCCCCCC[C@H](N)C(=O)O; NMe3Pal = CN[C@@H](Cc1cccnc1)C(=O)O; NMeY = CN[C@@H](Cc1ccc(O)cc1)C(=O)O; X1 = O=C(C12CC(CN[*:1])(C1)C2)[*:2]; Ala(cPr) = N[C@@H](CC1CC1)C(=O)O; NMeF = CN[C@@H](Cc1ccccc1)C(=O)O; PhLac = O=C(O)[C@@H](O)Cc1ccccc1; X9 = CCCC[C@H](O[*:1])C(=O)[*:2]; 3Pal = N[C@@H](Cc1cccnc1)C(=O)O; Ahp(2) = CCCCC[C@H](N)C(=O)O; Cba = N[C@@H](CC1CCC1)C(=O)O; hLeu = CC(C)CC[C@H](N)C(=O)O; hSer = N[C@@H](CCO)C(=O)O; αMeC = C[C@](N)(CS)C(=O)O; NMeA = CN[C@@H](C)C(=O)O; Nle = CCCC[C@H](N)C(=O)O; Pyrrolidide = C1CCN(*)C1; CHF2 = FC(F)*

Each compound was assayed against KRAS-G12D protein (Homo sapiens, UniProt P01116, G12D) (assay: SOS-mediated nucleotide exchange assay (BODIPY-GDP / Tb-streptavidin TR-FRET)).
Assay type: biochemical

Sequence of KRAS-G12D protein (P01116 1-188 isoform P01116-2 G12D): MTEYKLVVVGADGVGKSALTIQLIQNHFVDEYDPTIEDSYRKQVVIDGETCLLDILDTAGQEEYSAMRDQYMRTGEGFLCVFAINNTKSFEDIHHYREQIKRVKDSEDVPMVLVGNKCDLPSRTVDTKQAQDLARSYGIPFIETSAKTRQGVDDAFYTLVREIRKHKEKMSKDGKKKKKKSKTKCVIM

Compound | EC50
CCCCCCCC[C@@H]1NC(=O)[C@H](Cc2ccc(O)cc2)NC(=O)[C@H](CC(C)C)NC(=O)[C@H](Cc2ccc(O)cc2)NC(=O)[C@H](CCCNC(=N)N)NC(=O)[C@H](Cc2ccccc2)NC(=O)CSC[C@@H](C(=O)NCC(=O)N[C@@H](CCCCN)C(=O)N[C@@H](CCCCN)C(N)=O)NC(=O)[C@H](Cc2ccccc2)N(C)C1=O [compound 59, cyclo(-F-R-Y-L-Y-Aca-NMeF-C2-ClAc)] ({CH2CO}-FRYLY[Gly(octyl)][NMeF]CGKK-NH2; thioether N-8) | 812 nM
Cc1cccc(C[C@H]2C(=O)NCC34CC(C3)(C4)C(=O)O[C@@H](Cc3ccccc3)C(=O)N(C)[C@@H](C)C(=O)N[C@@H](Cc3cncnc3)C(=O)N[C@@H](CC3CC3)C(=O)N[C@@H](Cc3ccccc3F)C(=O)N[C@@H](CCC3CC3)C(=O)N2C)c1 [compound 334, cyclo(FLac-NMeA-PyrimAla-cPrA-Phe2F-hcPrA-NMePhe3Me-amBCP)] (cyclo([Ala(cPr)][Phe(2-F)][X31][NMePhe(3-Me)][X1][PhLac][NMeA][Ala(pyrimidin-5-yl)])) | 2 nM
CCCCC[C@@H]1NC(=O)[C@H](Cc2ccc(OC)cc2)NC(=O)[C@H](CC2CCC2)NC(=O)[C@H](Cc2cccnc2)NC(=O)[C@H](CCCNC(=N)N)NC(=O)[C@H](Cc2ccccc2)NC(=O)CSC[C@@](C)(C(N)=O)NC(=O)[C@H](Cc2cnco2)N(C)C1=O [compound 379, cyclo(F-R-3Pal-cBuA-TyrOMe-Ahp-NMeAla5Oxa-aMeCl-ClAc)] ({CH2CO}-FR[3Pal][Cba]Y(Me)[Ahp(2)][X20][αMeC]-NH2; thioether N-8) | 48.9 nM
CCCC[C@@H]1NC(=O)[C@H](Cc2cncnc2)NC(=O)[C@H](C)N(C)C(=O)[C@H](Cc2ccccc2)OC(=O)C23CC(CNC(=O)[C@H](Cc4cccc(C)c4)N(C)C(=O)[C@H](CCCC)NC(=O)[C@H](Cc4ccccc4F)NC1=O)(C2)C3 [compound 172, cyclo(FLac-NMeA-PyrimAla-Nle-Phe2F-Nle-NMePhe3Me-amBCP)] (cyclo([NMeA][Ala(pyrimidin-5-yl)][Nle][Phe(2-F)][Nle][NMePhe(3-Me)][X1][PhLac])) | 6.03 nM
CCCC[C@@H]1NC(=O)[C@H](Cc2cnn(C3COC3)c2)NC(=O)[C@H](C)N(C)C(=O)[C@H](Cc2ccccc2)OC(=O)C23CC(CNC(=O)[C@H](Cc4ccccc4)N(C)C(=O)[C@H](CCCC)NC(=O)[C@H](Cc4ccccc4F)NC1=O)(C2)C3 [compound 317, cyclo(FLac-NMeA-AlaPyz1Ox-Nle-Phe2F-Nle-NMeF-amBCP)] (cyclo([NMeA][X6][Nle][Phe(2-F)][Nle][NMeF][X1][PhLac])) | 22.7 nM
CC(C)CC[C@@H]1NC(=O)[C@H](Cc2ccncc2Cl)NC(=O)[C@H](CC2CC2)NC(=O)[C@H](Cc2cncnc2)NC(=O)[C@H](C)N(C)C(=O)[C@H](Cc2ccccc2)OC(=O)C23CC(CNC(=O)[C@H](Cc4ccccc4)N(C)C1=O)(C2)C3 [compound 298, cyclo(FLac-NMeA-PyrimAla-cPrA-4Pal2Cl-hL-NMeF-amBCP)] (cyclo([Ala(cPr)][X24][hLeu][NMeF][X1][PhLac][NMeA][Ala(pyrimidin-5-yl)])) | 11 nM
CCCC[C@@H]1NC(=O)[C@H](Cc2coc(-c3ccccc3)n2)NC(=O)[C@H](C)N(C)C(=O)[C@H](Cc2ccccc2)OC(=O)C23CC(CNC(=O)[C@H](Cc4ccccc4)N(C)C(=O)[C@H](CCCC)NC(=O)[C@H](Cc4ccccc4F)NC1=O)(C2)C3 [compound 307, cyclo(FLac-NMcA-AlaOxz2Ph-Nle-Phe2F-Nle-NMeF-amBCP)] (cyclo([NMeA][X55][Nle][Phe(2-F)][Nle][NMeF][X1][PhLac])) | 155 nM
C[C@H]1C(=O)N[C@@H](Cc2cncnc2)C(=O)N[C@@H](CC2CC2)C(=O)N[C@@H](Cc2ccccc2F)C(=O)N[C@@H](CC2CC2)C(=O)N(C)[C@@H](Cc2ccccc2)C(=O)NCC23CC(C2)(C3)C(=O)O[C@@H](Cc2ccccc2)C(=O)N1C [compound 267, cyclo(FLac-NMeA-PyrimAla-cPrA-Phe2F-cPrA-NMeF-amBCP)] (cyclo([Ala(cPr)][NMeF][X1][PhLac][NMeA][Ala(pyrimidin-5-yl)][Ala(cPr)][Phe(2-F)])) | 471 nM
CCCC[C@@H]1NC(=O)[C@H](Cc2ccc(OC(F)F)cc2)NC(=O)[C@H](C)N(C)C(=O)[C@H](Cc2ccccc2)OC(=O)C23CC(CNC(=O)[C@H](Cc4ccccc4)N(C)C(=O)[C@H](CCCC)NC(=O)[C@H](Cc4ccccc4F)NC1=O)(C2)C3 [compound 312, cyclo(FLac-NMeA-TyrOCF2-Nle-Phe2F-Nle-NMeF-amBCP)] (cyclo([NMeA]Y(CHF2)[Nle][Phe(2-F)][Nle][NMeF][X1][PhLac])) | 966 nM
CCCC[C@@H]1NC(=O)[C@H](Cc2ccccc2F)NC(=O)[C@H](CC2CCC2)NC(=O)[C@H](CCO)NC(=O)[C@H](CCCNC(=N)N)NC(=O)[C@H](Cc2ccccc2)NC(=O)CSC[C@@](C)(C(N)=O)NC(=O)[C@H](Cc2ccccc2)N(C)C1=O [compound 50, cyclo(F-R-hS-cBuA-Phe2F-Nle-NMeF-aMeCl-ClAc)] ({CH2CO}-FR[hSer][Cba][Phe(2-F)][Nle][NMeF][αMeC]-NH2; thioether N-8) | 503 nM
CC(C)CC[C@@H]1NC(=O)[C@H](Cc2ccncc2F)NC(=O)[C@H](CC2CC2)NC(=O)[C@H](Cc2cncnc2)NC(=O)[C@H](C)N(C)C(=O)[C@H](Cc2ccccc2)OC(=O)C23CC(CNC(=O)[C@H](Cc4ccccc4)N(C)C1=O)(C2)C3 [compound 214, cyclo(FLac-NMeA-PyrimAla-cPrA-4Pal2F-hL-NMeF-amBCP)] (cyclo([Ala(cPr)][X13][hLeu][NMeF][X1][PhLac][NMeA][Ala(pyrimidin-5-yl)])) | 2.69 nM
CCCCC[C@@H]1NC(=O)[C@H](Cc2ccc(OC)cc2)NC(=O)[C@H](CC2CCC2)NC(=O)[C@H](Cc2ccc(NC(=N)N)cc2)NC(=O)[C@H](CCCNC(=N)NC)N(C)C(=O)[C@H](Cc2ccccc2)NC(=O)CSC[C@@](C)(C(N)=O)NC(=O)[C@H](Cc2ccccc2)N(C)C1=O [compound 380, cyclo(F-NMeArgMe-Phe4Gn-cBuA-TyrOMe-Abp-NMeF-aMeCl-ClAc)] ({CH2CO}-F[NMeArg(Me)][Phe(4-guanidino)][Cba]Y(Me)[Ahp(2)][NMeF][αMeC]-NH2; thioether N-8) | 1.68 nM
CCCC[C@@H]1NC(=O)[C@H](Cc2cccnc2)NC(=O)[C@H](CCCn2ccnc2)N(C)C(=O)[C@H](Cc2ccccc2)N(C)C(=O)C23CC(CNC(=O)[C@H](Cc4cccnc4)N(C)C(=O)[C@H](CCCC)NC(=O)[C@H](Cc4ccccc4F)NC1=O)(C2)C3 [compound 264, cyclo(NMeF-NMeNvalmid-3Pal-Nle-Phe2F-Nle-NMe3Pal-amBCP)] (cyclo([3Pal][Nle][Phe(2-F)][Nle][NMe3Pal][X1][NMeF][NMeNva(5-imidazol-1-yl)])) | 4030 nM
CCCCC[C@@H]1NC(=O)[C@H](CC(=O)N2CCCC2)NC(=O)[C@H](CC2CCC2)NC(=O)[C@H](Cc2cccnc2)NC(=O)[C@H](CCCNC(=N)N)NC(=O)[C@H](Cc2ccccc2)NC(=O)CSC[C@@](C)(C(N)=O)NC(=O)[C@H](Cc2ccccc2)N(C)C1=O [compound 373, cyclo(F-R~3Pal-cBuA-PyD-Ahp-NMeF-aMeCl-ClAc)] ({CH2CO}-FR[3Pal][Cba]D(Pyrrolidide)[Ahp(2)][NMeF][αMeC]-NH2; thioether N-8) | 1970 nM
CCCCC[C@@H]1NC(=O)[C@H](Cc2ccc(O)cc2)NC(=O)[C@H](CCCC)NC(=O)[C@H](Cc2ccc(O)cc2)NC(=O)[C@H](CCCNC(=N)N)NC(=O)[C@H](Cc2ccccc2)NC(=O)CSC[C@@H](C(N)=O)NC(=O)[C@H](Cc2ccccc2)N(C)C1=O [compound 12, cyclo(F-R-Y-Nle-Y-Ahp-NMeF-Cl-ClAc)] ({CH2CO}-FRY[Nle]Y[Ahp(2)][NMeF]C-NH2; thioether N-8) | 1190 nM
CCCC[C@@H]1NC(=O)[C@H](Cc2ccc(O)cc2)NC(=O)[C@H](CC(C)C)NC(=O)[C@H](Cc2ccc(O)cc2)NC(=O)[C@H](CCCNC(=N)N)NC(=O)[C@H](Cc2ccc(F)cc2)NC(=O)CSCCNC(=O)[C@H](Cc2ccccc2)N(C)C1=O [compound 75, cyclo(Phe4F-R-Y-L-Y-Nle-NMeF-Cysteamine-ClAc)] (cyclo(LY[Nle][NMeF][NHCH2CH2SCH2CO][Phe(4-F)]RY)) | 2510 nM
COc1ccc(C[C@@H]2NC(=O)[C@H](CC3CCC3)NC(=O)[C@H](Cc3cccnc3)NC(=O)[C@H](CCCNC(=N)N)NC(=O)[C@H](Cc3ccccc3)NC(=O)CSC[C@](C)(C(N)=O)NC(=O)[C@@H]3CCCCCCCC[C@H](NC2=O)C(=O)N3C)cc1 [SEQ ID NO: 193, cyclo(F-R-3Pal-cBuA-TyrOMe-AheNMeAhe-aMeC-C1Ac)] | 900 nM
CCCC[C@@H]1NC(=O)[C@H](Cc2ccccc2F)NC(=O)[C@H](CCCC)OC(=O)[C@H](Cc2cccnc2)NC(=O)[C@H](CCN=[N+]=[N-])N(C)C(=O)[C@H](Cc2ccccc2)NC(=O)C23CC(CNC(=O)[C@H](Cc4cccnc4)N(C)C1=O)(C2)C3 [compound 250, cyclo(F-NMeDabN3-3Pal-NleLac-Phe2F-Nle-NMe3Pal-amBCP)] (cyclo(F[NMeAha][3Pal][X9][Phe(2-F)][Nle][NMe3Pal][X1])) | 3880 nM
CCCC[C@@H]1NC(=O)[C@H](Cc2cncnc2)NC(=O)[C@H](C)N(C)C(=O)[C@H](Cc2ccccc2)OC(=O)C23CC(CNC(=O)[C@H](Cc4ccc(OC)cc4)N(C)C(=O)[C@H](CCCC)NC(=O)[C@H](Cc4ccccc4F)NC1=O)(C2)C3 [compound 175, cyclo(FLac-NMeA-PyrimAla-Nle-Phe2F-Nle-NMeYOMe-amBCP)] (cyclo([NMeA][Ala(pyrimidin-5-yl)][Nle][Phe(2-F)][Nle][NMeY](Me)[X1][PhLac])) | 11 nM
CCCC[C@@H]1NC(=O)[C@H](Cc2ccc(C)nc2F)NC(=O)[C@H](C)N(C)C(=O)[C@H](Cc2ccccc2)OC(=O)C23CC(CNC(=O)[C@H](Cc4ccccc4)N(C)C(=O)[C@H](CCCC)NC(=O)[C@H](Cc4ccccc4F)NC1=O)(C2)C3 [compound 311, cyclo(FLac-NMeA-3Pal2F4Me-Nle-Phe2F-Nle-NMeF-amBCP)] (cyclo([NMeA][X81][Nle][Phe(2-F)][Nle][NMeF][X1][PhLac])) | 892 nM
